Laboratory results taken from patent publication US9656963B2 (BRISTOL-MYERS SQUIBB COMPANY, priority 2012, dated 2017).

Biological target: T1, hGPR40 (Homo sapiens, UniProt O14842)
T1 construct: 3x FLAG; expressed in transfected cells
Assay: FDSS-Based Intracellular Calcium Assay
Assay type: cell-based
Settings: cells expressing GPR40, intracellular Ca2+ response
Experimental: FDSS-Based Intracellular Calcium Assay
Cell lines expressing GPR40 are generated using the pDEST 3× flag gene expression system and are cultured in culture medium comprising the following components: F12 (Gibco #11765), 10% lipid deprived fetal bovine serum, 250 μg/ml zeocin and 500 μg/ml G418. To conduct the fluorescent imaging plate reader (FLIPR)-based calcium flux assay to measure intracellular Ca^2+ response, cells expressing GPR40 are plated on 384 well plates (BD Biocoat #356697) at a density of 20,000 cells/20 μL medium per well in phenol red and serum-free DMEM (Gibco #21063-029) and incubated overnight. […] Compounds are dissolved in DMSO and diluted to desired concentrations with assay buffer and added to the cells as 3x solution (20 μL per well). Run fluorescence/luminescence reader FDSS (Hamamatsu) to read intracellular Ca^2+ response.

T1 sequence (O14842 whole entry): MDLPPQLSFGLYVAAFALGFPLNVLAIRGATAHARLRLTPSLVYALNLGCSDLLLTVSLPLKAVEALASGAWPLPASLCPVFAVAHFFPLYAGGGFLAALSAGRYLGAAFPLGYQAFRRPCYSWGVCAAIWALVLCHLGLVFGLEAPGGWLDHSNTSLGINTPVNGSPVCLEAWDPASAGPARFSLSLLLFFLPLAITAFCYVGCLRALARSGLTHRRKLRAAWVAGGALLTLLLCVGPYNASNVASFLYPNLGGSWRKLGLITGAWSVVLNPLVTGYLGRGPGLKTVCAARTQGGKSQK

EC50 [µM]	SMILES
1.96	O=C(O)CC1CC(C(F)(F)F)=NN1c1ccc(OCc2ccccc2)cc1 (racemic) [Example 1, 2-(1-(4-(benzyloxy)phenyl)-3-(trifluoromethyl)-4,5-dihydro-1H-pyrazol-5-yl)acetic acid]
0.8	O=C(O)CC1CC(C(F)(F)F)=NN1c1ccc(OCc2ccc(Cl)cc2Cl)cc1 (racemic) [Example 2, 2-(1-(4-(2,4-dichlorobenzyloxy)phenyl)-3-(trifluoromethyl)-4,5-dihydro-1H-pyrazol-5-yl)acetic acid]
0.22	N#CC1=NN(c2ccc(Oc3cccc(Cl)c3)cc2)C(CC(=O)O)C1 (racemic) [Example 4, 2-(1-(4-(3-chlorophenoxy)phenyl)-3-cyano-4,5-dihydro-1H-pyrazol-5-yl)acetic acid]
1.65	Cc1ccccc1Oc1ccc(N2N=C(S(C)(=O)=O)CC2CC(=O)O)cc1 (racemic) [Example 5, 2-(3-(methylsulfonyl)-1-(4-(o-tolyloxy)phenyl)-4,5-dihydro-1H-pyrazol-5-yl)acetic acid]
1.81	Cc1ccccc1Oc1ccc(N2N=C(C(=O)N(C)C)CC2CC(=O)O)cc1 (racemic) [Example 6, 2-(3-(dimethylcarbamoyl)-1-(4-(o-tolyloxy)phenyl)-4,5-dihydro-1H-pyrazol-5-yl)acetic acid]
3.2	Cc1ccccc1Oc1ccc(N2N=C(c3nnnn3C)CC2CC(=O)O)cc1 (racemic) [Example 7, 2-(3-(1-methyl-1H-tetrazol-5-yl)-1-(4-(o-tolyloxy)phenyl)-4,5-dihydro-1H-pyrazol-5-yl)acetic acid]
0.23	Cc1cc(Br)c(F)cc1Oc1ccc(N2N=C(C(F)(F)F)CC2CC(=O)O)cc1 (racemic) [Example 10, 2-(1-(4-(4-bromo-5-fluoro-2-methylphenoxy)phenyl)-3-(trifluoromethyl)-4,5-dihydro-1H-pyrazol-5-yl)acetic acid]
0.51	COc1ccc(F)c(-c2cc(C)c(Oc3ccc(N4N=C(C(F)(F)F)CC4CC(=O)O)cc3)cc2F)c1 (racemic) [Example 12, 2-(1-(4-(2,2′-difluoro-5′-methoxy-5-methylbiphenyl-4-yloxy)phenyl)-3-(trifluoromethyl)-4,5-dihydro-1H-pyrazol-5-yl)acetic acid]
0.16	Cc1cc(Br)ccc1Oc1ccc(N2N=C(C(F)(F)F)CC2CC(=O)O)cc1 (racemic) [Example 13, 2-(1-(4-(4-bromo-2-methylphenoxy)phenyl)-3-(trifluoromethyl)-4,5-dihydro-1H-pyrazol-5-yl)acetic acid]
0.455	Cc1cc(Cc2ccc(N3N=C(C(F)(F)F)CC3CC(=O)O)cc2)ccc1Br (racemic) [Example 18, 2-(1-(4-(4-bromo-3-methylbenzyl)phenyl)-3-(trifluoromethyl)-4,5-dihydro-1H-pyrazol-5-yl)acetic acid]
0.35	COc1ccc(Cl)c(-c2ccc(Cc3ccc(N4N=C(C(F)(F)F)CC4CC(=O)O)cc3)cc2C)c1 (racemic) [Example 23, 2-(1-(4-((2′-chloro-5′-methoxy-2-methylbiphenyl-4-yl)methyl)phenyl)-3-(trifluoromethyl)-4,5-dihydro-1H-pyrazol-5-yl)acetic acid]
0.57	Cc1cc(Cc2ccc(N3N=C(C(F)(F)F)CC3CC(=O)O)cc2)ccc1-c1cc(C(F)(F)F)ccc1F (racemic) [Example 24, 2-(1-(4-((2′-fluoro-2-methyl-5′-(trifluoromethyl)biphenyl-4-yl)methyl)phenyl)-3-(trifluoromethyl)-4,5-dihydro-1H-pyrazol-5-yl)acetic acid]
0.28	Cc1cc(Cc2ccc(N3N=C(C(F)(F)F)CC3CC(=O)O)cc2)ccc1-c1cc(OC(F)(F)F)ccc1Cl (racemic) [Example 25, 2-(1-(4-((2′-chloro-2-methyl-5′-(trifluoromethoxy)biphenyl-4-yl)methyl)phenyl)-3-(trifluoromethyl)-4,5-dihydro-1H-pyrazol-5-yl)acetic acid]
0.43	CC(C)c1ccccc1Oc1ccc(N2N=C(C#N)CC2CC(=O)O)cc1 (racemic) [Example 29, 2-(3-cyano-1-(4-(2-isopropylphenoxy)phenyl)-4,5-dihydro-1H-pyrazol-5-yl)acetic acid]
0.18	N#CC1=NN(c2ccc(Oc3ccccc3Br)cc2)C(CC(=O)O)C1 (racemic) [Example 30, 2-(1-(4-(2-bromophenoxy)phenyl)-3-cyano-4,5-dihydro-1H-pyrazol-5-yl)acetic acid]
0.36	Cc1cc(Oc2ccc(N3N=C(C#N)CC3CC(=O)O)cc2)c(C)cc1Br (racemic) [Example 31, 2-(1-(4-(4-bromo-2,5-dimethylphenoxy)phenyl)-3-cyano-4,5-dihydro-1H-pyrazol-5-yl)acetic acid]
0.19	COc1ccc(F)c(-c2ccc(Oc3ccc(N4N=C(C#N)CC4CC(=O)O)cc3)c(C)c2)c1 (racemic) [Example 32, 2-(3-cyano-1-(4-(2′-fluoro-5′-methoxy-3-methylbiphenyl-4-yloxy)phenyl)-4,5-dihydro-1H-pyrazol-5-yl)acetic acid]
0.3	N#CC1=NN(c2ccc(OCc3ccc(Cl)cc3Cl)cc2)C(CC(=O)O)C1 (racemic) [Example 33, 2-(3-cyano-1-(4-(2,4-dichlorobenzyloxy)phenyl)-4,5-dihydro-1H-pyrazol-5-yl)acetic acid]
0.18	COc1ccc(F)c(-c2cc(C)c(Oc3ccc(N4N=C(C#N)CC4CC(=O)O)cc3)cc2C)c1 (racemic) [Example 35, 2-(3-cyano-1-(4-(2′-fluoro-5′-methoxy-2,5-dimethylbiphenyl-4-yloxy)phenyl)-4,5-dihydro-1H-pyrazol-5-yl)acetic acid]
0.59	COc1cccc(-c2cc(C)c(Oc3ccc(N4N=C(C#N)CC4CC(=O)O)cc3)cc2C)c1 (racemic) [Example 36, 2-(3-cyano-1-(4-(3′-methoxy-2,5-dimethylbiphenyl-4-yloxy)phenyl)-4,5-dihydro-1H-pyrazol-5-yl)acetic acid]
0.15	COc1ccc(Cc2ccc(N3N=C(C#N)CC3CC(=O)O)cc2)c(C)c1 (racemic) [Example 37, 2-(3-cyano-1-(4-(4-methoxy-2-methylbenzyl)phenyl)-4,5-dihydro-1H-pyrazol-5-yl)acetic acid]
0.19	COc1cccc(-c2ccc(Cc3ccc(N4N=C(C#N)CC4CC(=O)O)cc3)c(C)c2)c1 (racemic) [Example 38, 2-(3-cyano-1-(4-((3′-methoxy-3-methylbiphenyl-4-yl)methyl)phenyl)-4,5-dihydro-1H-pyrazol-5-yl)acetic acid]
0.2	Cc1cc(-c2cc(C#N)ccc2F)ccc1Cc1ccc(N2N=C(C#N)CC2CC(=O)O)cc1 (racemic) [Example 39, 2-(3-cyano-1-(4-((5′-cyano-2′-fluoro-3-methylbiphenyl-4-yl)methyl)phenyl)-4,5-dihydro-1H-pyrazol-5-yl)acetic acid]
0.12	COc1ccc(Cl)c(-c2ccc(Cc3ccc(N4N=C(C#N)CC4CC(=O)O)cc3)c(C)c2)c1 (racemic) [Example 40, 2-(1-(4-((2′-chloro-5′-methoxy-3-methylbiphenyl-4-yl)methyl)phenyl)-3-cyano-4,5-dihydro-1H-pyrazol-5-yl)acetic acid]
0.037	Cc1ccccc1Oc1ccc(N2N=C(C#N)CC2CC(=O)O)cc1 (single isomer, unassigned) [Example 3, Isomer 1, 2-(3-cyano-1-(4-(o-tolyloxy)phenyl)-4,5-dihydro-1H-pyrazol-5-yl)acetic acid]
